Measurements reported in the supplement of paper PMC13380429.
± gives the standard deviation of the averaged measurements.

Assays:
Details in all cases: 72 h
[1] = system: Calu-3; experiment: drug sensitivity score (DSS) for viability; higher = more toxic; extreme values may be limits of the assay
[2] = system: HepG2; experiment: as above
[3] = system: U2OS; experiment: as above
[4] = system: Caco-2; experiment: as above
[5] = system: Vero E6; experiment: as above
[6] = system: Calu-3; experiment: relative viability EC50 (midpoint between 100% and the lowest measured viability); higher = less toxic
[7] = system: HepG2; experiment: as above
[8] = system: U2OS; experiment: as above
[9] = system: Caco-2; experiment: as above
[10] = system: Vero E6; experiment: as above
[11] = system: Calu-3; experiment: cell viability relative to DMSO; higher = less toxic
[12] = system: HepG2; experiment: as above
[13] = system: U2OS; experiment: as above
[14] = system: Caco-2; experiment: as above
[15] = system: Vero E6; experiment: as above

SMILES | drug sensitivity score [1] | drug sensitivity score [2] | drug sensitivity score [3] | drug sensitivity score [4] | drug sensitivity score [5] | relative viability EC50 [6] | relative viability EC50 [7] | relative viability EC50 [8] | relative viability EC50 [9] | relative viability EC50 [10] | cell viability ([11]; 1 nM) | cell viability ([11]; 10 nM) | cell viability ([11]; 100 nM) | cell viability ([11]; 1000 nM) | cell viability ([11]; 10000 nM) | cell viability ([12]; 1 nM) | cell viability ([12]; 10 nM) | cell viability ([12]; 100 nM) | cell viability ([12]; 1000 nM) | cell viability ([12]; 10000 nM) | cell viability ([13]; 1 nM) | cell viability ([13]; 10 nM) | cell viability ([13]; 100 nM) | cell viability ([13]; 1000 nM) | cell viability ([13]; 10000 nM) | cell viability ([14]; 1 nM) | cell viability ([14]; 10 nM) | cell viability ([14]; 100 nM) | cell viability ([14]; 1000 nM) | cell viability ([14]; 10000 nM) | cell viability ([15]; 1 nM) | cell viability ([15]; 10 nM) | cell viability ([15]; 100 nM) | cell viability ([15]; 1000 nM) | cell viability ([15]; 10000 nM)
CNC(=O)ON(C(C)=O)C(=O)NC [caracemide] | 0 | 0 | 0 | 0 | 0 | > 10 µM | > 10 µM | > 10 µM | > 10 µM | > 10 µM | 94% | 102% | 111% | 101% | 98.3% | 107% | 104% | 112% | 93.8% | 108% | 94.8% | 102% | 99.3% | 103% | 106% | 89.6% | 103% | 95.8% | 97.1% | 99.7% | 97.2% | 96.9% | 99.6% | 94.7% | 112%
Cc1ccc(-c2cc(C(F)(F)F)nn2-c2ccc(S(N)(=O)=O)cc2)cc1 [celecoxib] | 0 | 0 | 0 | 0 | 0 | > 10 µM | > 10 µM | > 10 µM | > 10 µM | > 10 µM | 99.4% | 100% | 98.2% | 101% | 114% | 115% | 98.4% | 99.3% | 100% | 95.1% | 92.4% | 99.6% | 92.4% | 97.7% | 98.4% | 99.1% | 79.8% | 105% | 90.6% | 103% | 101% | 85.4% | 102% | 94.1% | 104%
O=C([O-])c1ccccn1.O=C([O-])c1ccccn1.O=C([O-])c1ccccn1.[Cr+3] [chromium-picolinate] | 0 | 0 | 0 | 0 | 0 | > 10 µM | > 10 µM | > 10 µM | > 10 µM | > 10 µM | 111% | 102% | 113% | 103% | 97.6% | 93% | 95.3% | 103% | 98.7% | 90.1% | 104% | 97.7% | 98.6% | 98.9% | 102% | 105% | 92% | 104% | 95.5% | 103% | 102% | 103% | 105% | 99.2% | 101%
Clc1ccc(Cn2c(CN3CCCC3)nc3ccccc32)cc1 [clemizole] | 0 | 0 | 0 | 0.5 | 0 | > 10 µM | > 10 µM | > 10 µM | > 10 µM | > 10 µM | 95.7% | 98.4% | 101% | 101% | 107% | 112% | 111% | 94.3% | 106% | 89.1% | 101% | 97.7% | 98.6% | 105% | 97.8% | 95.5% | 94.7% | 97.6% | 97% | 84.7% | 102% | 104% | 103% | 99.2% | 92.3%
O=c1cc(N2CCOCC2)nc2c3ccccc3ccn12 [compound-401] | 0 | 2.5 | 0 | 0.2 | 0 | > 10 µM | > 10 µM | > 10 µM | > 10 µM | > 10 µM | 93.8% | 94.4% | 97.9% | 99.5% | 107% | 93% | 108% | 99.4% | 82.8% | 78% | 96.2% | 99.8% | 97.2% | 101% | 95.5% | 96.8% | 108% | 96.4% | 99.1% | 85.8% | 102% | 97.9% | 98% | 98.3% | 95.9%
CC(=O)OCC(=O)[C@@]1(O)CC[C@H]2[C@@H]3CCC4=CC(=O)CC[C@]4(C)[C@H]3C(=O)C[C@@]21C [cortisone-acetate] | 0 | 0 | 0 | 0 | 0 | > 10 µM | > 10 µM | > 10 µM | > 10 µM | > 10 µM | 93.2% | 98.5% | 98.9% | 106% | 101% | 90% | 110% | 104% | 110% | 101% | 99.6% | 98.1% | 97% | 101% | 95.1% | 108% | 95.4% | 101% | 96.3% | 103% | 87.9% | 97.5% | 96.4% | 101% | 99.3%
CC(C)(C)NCC(O)COc1cccc2[nH]c(C#N)cc12 (stereo not given) [cyanopindolol] | 0 | 0 | 0 | 0 | 0 | > 10 µM | > 10 µM | > 10 µM | > 10 µM | > 10 µM | 85.4% | 105% | 100% | 96.8% | 92.8% | 93% | 95.7% | 89.6% | 102% | 95.8% | 100% | 98.8% | 96.7% | 94.7% | 101% | 103% | 103% | 95.8% | 99.7% | 97.5% | 102% | 103% | 100% | 104% | 97%
c1ccc(Cn2c(-c3ccc(OC[C@H](C4CCNCC4)n4c(-c5ccccc5)nc5ccccc54)cc3)nc3ccccc32)cc1 [deltarasin] | 5.1 | 4.9 | 5.6 | 6 | 6.2 | 3.51 µM | 3.62 µM | 3.14 µM | 2.85 µM | 2.8 µM | 105% | 102% | 102% | 107% | 0.1% | 99.7% | 100% | 95% | 110% | -0.3% | 99.9% | 93.9% | 98.7% | 99.9% | -0.3% | 98.6% | 87.8% | 104% | 95.9% | 2.1% | 92.9% | 99.3% | 94% | 95.4% | -0.1%
CC[N+](CC)(CC(=O)Nc1c(C)cccc1C)Cc1ccccc1 [denatonium-benzoate] | 0 | 0 | 0 | 0 | 0 | > 10 µM | > 10 µM | > 10 µM | > 10 µM | > 10 µM | 96.7% | 101% | 98.3% | 92.8% | 105% | 100% | 99.3% | 108% | 100% | 116% | 91% | 96.1% | 95.9% | 103% | 104% | 100% | 102% | 99.8% | 110% | 112% | 95.1% | 99.2% | 95.3% | 88.9% | 111%
CC/C(=C(/CC)c1ccc(O)cc1)c1ccc(O)cc1 [diethylstilbestrol] | 0 | 0 | 0 | 0.3 | 0 | > 10 µM | > 10 µM | > 10 µM | > 10 µM | > 10 µM | 106% | 96.7% | 114% | 103% | 109% | 111% | 98.8% | 103% | 98.8% | 106% | 98.6% | 94% | 99.5% | 94.3% | 96.8% | 97.7% | 87.3% | 107% | 106% | 81.5% | 95.1% | 99.8% | 91.2% | 98.3% | 107%
N[C@@H](C(=O)O)c1cc(O)cc(O)c1 [dihydroxyphenylglycine] | 0 | 0 | 0 | 0 | 0 | > 10 µM | > 10 µM | > 10 µM | > 10 µM | > 10 µM | 104 ± 5.4% | 90.5 ± 9.7% | 102 ± 1.1% | 102 ± 6.4% | 105 ± 9.4% | 95.8 ± 10% | 92 ± 9.4% | 87.9 ± 4.8% | 98.2 ± 2.4% | 102 ± 8.4% | 102.7 ± 0.85% | 97.2 ± 2.8% | 103% | 98.8 ± 0.42% | 101 ± 2% | 102 ± 3.8% | 94.9 ± 1.1% | 92.4 ± 7.5% | 90.8 ± 4.5% | 103 ± 5% | 99.4 ± 5.7% | 97.5 ± 7% | 98.5 ± 1.9% | 99.6 ± 5.4% | 95.8 ± 4.7%
